Laboratory results reported in US10782295B2, “Cysteine-reactive ligand discovery in proteomes” (THE SCRIPPS RESEARCH INSTITUTE, priority 2013, dated 2020).

How the values were obtained:
Assay in all cases: competitive isoTOP-ABPP, MDA-MB-231 soluble proteome
AHSG = assay type: binding, human; conditions: 100 μM LDE, 60 min; peptide C*DSSPDSAEDVR
Experimental: (§1) Here, we envisioned that isoTOP-ABPP could be advanced to discover and quantify reactions between cysteines in proteomes and any electrophilic compound. In this advanced, ‘competitive’ version of isoTOP-ABPP (FIG. 1a), a proteome is treated with an electrophile (experimental sample) or DMSO (control sample). Both proteomic samples are then labeled with the IA probe and conjugated by CuAAC to light and heavy azide-biotin tags, respectively. The light and heavy samples are then mixed and subjected to our described isoTOP-ABPP protocol for enrichment, identification, and quantification of IA-labeled cysteines^30. Electrophile-modified cysteines are quantified by measuring the MS1 chromatographic peak ratios (R values) for heavy (DMSO-treated) over light (electrophile-treated) samples, with higher R values reflecting greater sensitivity to the electrophile. In this format, competitive isoTOP-ABPP can assay electrophiles against 1000+ cysteines in parallel directly in native proteomes without requiring any chemical modification to the electrophiles themselves.
(§2) Competitive isoTOP-ABPP experiments were performed in quadruplicate using the soluble proteome of the human breast cancer cell line MDA-MB-231 cell line. Proteomes were treated with 100 μM HNE, 15d-PGJ2, or 2-HD, for 60 minutes, followed by the IA-probe (100 μM, 60 min) A total of ˜1400 cysteine reactivities were quantified across the aggregate data set, with at least 900 cysteine reactivities quantified for each LDE (FIG. 2a) more than 750 of which were quantified for all the three electrophiles.
HNE was purchased from EMD biosciences, 15d-PGJ2 was purchased from Cayman Chemicals and 2-HD was purchased from Santa Cruz Biotechnology. Proteome samples were diluted to a 4 mg protein/mL solution in PBS. […]
IA-probe labeled peptides were identified by SEQUEST2 and DTASelect3, and the quantification of heavy/light ratios (isoTOP-ABPP ratios, R) was performed by an in-house software (CIMAGE) as previously described. […]

FN3KRP = molecular target: T1, FN3KRP (Homo sapiens, UniProt Q9HA64); assay type: binding; conditions: 100 μM LDE, 60 min; peptide ATGHSGGGC*ISQGR
T1 construct: directly in native proteomes; endogenous in cells; host or cells: MDA-MB-231
T1 sequence (Q9HA64 1-309): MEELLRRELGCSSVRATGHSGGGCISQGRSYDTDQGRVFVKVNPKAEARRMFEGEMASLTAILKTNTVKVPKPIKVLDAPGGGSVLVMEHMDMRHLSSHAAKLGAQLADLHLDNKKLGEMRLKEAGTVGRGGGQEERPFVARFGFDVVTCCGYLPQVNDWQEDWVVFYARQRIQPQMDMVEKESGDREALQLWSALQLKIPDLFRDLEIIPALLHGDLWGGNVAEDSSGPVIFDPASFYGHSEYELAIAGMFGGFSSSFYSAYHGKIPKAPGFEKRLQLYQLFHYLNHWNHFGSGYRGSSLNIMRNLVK
Experimental: as §1, §2
The MDA-MB-231 cell proteome was treated with varying concentrations of HNE (5, 10, 50, 100 and 500 μM) for 60 min and then the IA-labeling profile of each reaction was quantitatively compared to a DMSO-control sample by isoTOP-ABPP.
HNE was purchased from EMD biosciences, 15d-PGJ2 was purchased from Cayman Chemicals and 2-HD was purchased from Santa Cruz Biotechnology. Proteome samples were diluted to a 4 mg protein/mL solution in PBS. For each profiling experiment, one aliquot of the proteome sample (0.5 mL) was treated with 100 μM of LDE using 5 μL of a 10 mM stock and the other aliquot was treated with 5 μL of either ethanol (for HNE and 15d-PGJ2) or DMSO (for 2-HD) as control. For the concentration-dependent profiling experiments using HNE, aliquots of the proteomes (0.5 mL each) were treated with 5, 10, 50, 100 and 500 μM of HNE using 5 μL of 0.5, 1.0, 5, 10 and 50 mM of stock solution, respectively. After 60 minutes of treatment at room temperature, both the LDE-treated and control aliquots were passed through a NAP-5 Sephadex column (GE healthcare) to remove any unreacted LDE. The volume of each aliquot was increased to 1 mL with the concentration at 2 mg/mL after this step.
Each of the control and LDE-treated proteome samples (˜2 mg protein/mL in 1 mL volume) was treated with 100 μM of IA-probe using 10 μL of a 10 mM stock in DMSO. The labeling reactions were incubated at room temperature for 1 hour. Click chemistry (acetylene-azide cycloaddition) was performed by the addition of 100 μM of either the Heavy-TEV-Tag (for the control sample) or Light-TEV-Tag (for the LDE-treated sample) (20 μL of a 5 mM stock), 1 mM TCEP (fresh 50× stock in water), 100 μM ligand (17× stock in DMSO:t-Butanol 1:4) and 1 mM CuSO4 (50× stock in water). Samples were allowed to react at room temperature for 1 hour. After the click chemistry step, the light and heavy-labeled samples were mixed together and centrifuged (5900×g, 4 min, 4° C.) to pellet the precipitated proteins.
The pellets were washed twice in cold MeOH, after which the pellet was solubilized in PBS containing 1.2% SDS via sonication and heating (5 min, 80° C.). Samples were subjected to streptavidin enrichment of probe-labeled proteins, sequential on-bead trypsin and TEV digestion, and liquid chromatography-mass spectrometry (LC-MS) analysis according to the published isoTOP-ABPP protocol^30. […]

WDR45L = molecular target: T2, WDR45L (Homo sapiens, UniProt Q5MNZ6); assay type: binding; conditions: 100 μM LDE, 60 min; peptide C*NYLALVGGGK
T2 construct: directly in native proteomes; endogenous in cells; host or cells: MDA-MB-231
T2 sequence (Q5MNZ6 whole entry): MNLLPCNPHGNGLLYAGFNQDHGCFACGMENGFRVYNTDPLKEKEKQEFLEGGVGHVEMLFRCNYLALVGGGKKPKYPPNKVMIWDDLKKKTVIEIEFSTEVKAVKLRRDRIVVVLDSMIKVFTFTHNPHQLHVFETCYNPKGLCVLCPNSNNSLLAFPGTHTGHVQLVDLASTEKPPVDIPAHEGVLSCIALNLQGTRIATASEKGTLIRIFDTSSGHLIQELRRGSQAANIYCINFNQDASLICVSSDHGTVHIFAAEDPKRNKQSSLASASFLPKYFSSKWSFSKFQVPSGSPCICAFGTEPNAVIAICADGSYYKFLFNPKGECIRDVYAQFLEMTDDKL

TNRC5 = molecular target: T3, TNRC5 (Homo sapiens, UniProt Q9BT09); assay type: binding; conditions: 100 μM LDE, 60 min; peptide QC*DVLVEEFEEVIEDWYR
T3 construct: directly in native proteomes; endogenous in cells; host or cells: MDA-MB-231
T3 sequence (Q9BT09 31-278): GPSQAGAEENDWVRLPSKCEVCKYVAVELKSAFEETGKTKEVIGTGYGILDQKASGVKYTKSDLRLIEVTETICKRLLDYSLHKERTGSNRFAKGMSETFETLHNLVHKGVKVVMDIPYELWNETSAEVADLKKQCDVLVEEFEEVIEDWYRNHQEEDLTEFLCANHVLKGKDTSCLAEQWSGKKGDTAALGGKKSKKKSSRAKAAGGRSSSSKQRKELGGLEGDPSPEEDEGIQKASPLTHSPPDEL

SMILES | R value (isoTOP-ABPP ratio heavy/light) for IA-labeled cysteine of AHSG (AHSG) | R value (isoTOP-ABPP ratio heavy/light) for IA-labeled cysteine of FN3KRP (FN3KRP) | R value (isoTOP-ABPP ratio heavy/light) for IA-labeled cysteine of WDR45L (WDR45L) | R value (isoTOP-ABPP ratio heavy/light) for IA-labeled cysteine of TNRC5 (TNRC5)
CCCCCCCCCCCCC/C=C/C=O [2-HD, 2-trans-hexadecenal] | 1.12 | 1.03 | 1.06 | 1.06
CCCCCC(O)/C=C/C=O (stereo not drawn) [4-HNE, 4-Hydroxynonenal] | 1.35 | >15 | 3.34 | 1.29
CCCCC/C=C/C=C1/C(=O)C=C[C@@H]1C/C=C\CCCC(=O)O [PGJ2, 15-deoxy-Δ12,14-prostaglandin J2] | 5.73 | 1.62 | 6.45 | 11.77
